Source: paper PMC11381544 (Nature Communications, 2024)

Test system: P3H1 within the PCP complex
Assay: 2-OG dependent oxygenase activity
Type: biochemical, human
Conditions: Succinate-Glo assay, Fig. 1g, Fig. 3f, Supplementary Fig. 1f

Substance	2OG-Fe (II) oxygenase / P3H1 activity, in words	2OG-Fe (II) oxygenase / P3H1 activity, in words (listed as PPIB^R95A)	2OG-Fe (II) oxygenase / P3H1 activity, in words (listed as R95A)
PCP ternary complex: low molecular weight elution fractions corresponding to the PCP ternary complex	inhibited upon depletion of ferrous ions	–	–
PCP-PPIBR95A: PCP complex with PPIB enzymatic mutation at the PI-site, R95A	–	elevated P3H1 activities	enhancing P3H1 activities
cyclosporin A [CsA, reference compound]	hydroxylation enhancement was absent	–	–
peak HW: high molecular weight elution fractions corresponding to the PCP dual-ternary complex	slightly lower P3H1 activity	–	–
